Assay: Resistance to rinse by colorimetry (Indigotine dye revelation, chromameter)
Assay type: physicochemical
Settings: 50 μl on ceramic tile, rinsed 2×10 ml deionized water, Indigotine dye 0.033%
Method: Methodology: 50 μl of each solution in deionized water is deposited on a ceramic tile 2.5 cm×2.5 cm. After drying at room temperature, the treated tiles are rinsed with 2×10 ml deionized water. The revelation is then performed with 200 μl lndigotine dye ex. Wackherr (Cl 73015) at 0.033% in deionized water (3 minutes contact). After removing the excess of dye with 10 ml deionized water and drying of the surface, the coloration intensity is measured with a chromameter (Minolta CR200™). The higher the ΔE, the higher the difference of coloration versus the reference tile (no treatment, no contact with the dye). The coloration is the signal of the persistence of the PHMB on the surface after rinsing.

CCCCCCCCCCCCOS(=O)(=O)[O-].[Na+] [SLS 0.1%, sodium lauryl sulfate]
ΔE (coloration versus reference tile): 0.5

— patent US6479044B1, “Antibacterial solution” (Colgate-Palmolive Company, priority 2001, dated 2002)
